Results on 5 compounds are retold here after ChEMBL document CHEMBL2311316, “Synthesis and biological evaluation of ¹⁸F labeled fluoro-oligo-ethoxylated 4-benzylpiperazine derivatives for sigma-1 receptor imaging” (Bioorg Med Chem, 2013).

Data set [1] in a line: Displacement of [3H]ditolyguanidine from sigma2 receptor in rat liver membranes. The data set is classed as cell membranes, Membrane. On the technique in general: Displacement assays read how much labelled ligand stays bound in the presence of the test substance.
Data set [2] deals with Sigma non-opioid intracellular receptor 1 (Rattus norvegicus, UniProt Q9R0C9). The experiment in a line: Displacement of (+)-[3H]pentazocine from sigma1 receptor in rat brain membranes. The data set is classed as cell membranes.
Sequence of Sigma non-opioid intracellular receptor 1 (Q9R0C9 whole entry): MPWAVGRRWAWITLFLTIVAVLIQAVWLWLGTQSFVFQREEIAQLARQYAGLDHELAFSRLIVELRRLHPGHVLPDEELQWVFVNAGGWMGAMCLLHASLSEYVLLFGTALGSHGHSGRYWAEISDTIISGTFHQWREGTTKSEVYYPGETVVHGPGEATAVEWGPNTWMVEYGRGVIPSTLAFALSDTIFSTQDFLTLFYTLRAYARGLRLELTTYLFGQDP
The species named for the next data set is Rattus norvegicus. Put plainly: Selectivity index, ratio of Ki for sigma2 receptor in rat liver membranes to Ki for sigma1 receptor in rat brain membranes. The data set is classed as cell membranes.
The subject of another data set is Brain. Put plainly: Specific drug uptake in ICR mouse brain at 4 uCi, iv measured 60 mins post dose. The data set is classed as ADME, organism-based. The following applies: in vivo, 1 h.
Data set [3] addresses T1, Vesicular acetylcholine transporter (Homo sapiens, UniProt Q16572).
T1 sequence (Q16572 whole entry): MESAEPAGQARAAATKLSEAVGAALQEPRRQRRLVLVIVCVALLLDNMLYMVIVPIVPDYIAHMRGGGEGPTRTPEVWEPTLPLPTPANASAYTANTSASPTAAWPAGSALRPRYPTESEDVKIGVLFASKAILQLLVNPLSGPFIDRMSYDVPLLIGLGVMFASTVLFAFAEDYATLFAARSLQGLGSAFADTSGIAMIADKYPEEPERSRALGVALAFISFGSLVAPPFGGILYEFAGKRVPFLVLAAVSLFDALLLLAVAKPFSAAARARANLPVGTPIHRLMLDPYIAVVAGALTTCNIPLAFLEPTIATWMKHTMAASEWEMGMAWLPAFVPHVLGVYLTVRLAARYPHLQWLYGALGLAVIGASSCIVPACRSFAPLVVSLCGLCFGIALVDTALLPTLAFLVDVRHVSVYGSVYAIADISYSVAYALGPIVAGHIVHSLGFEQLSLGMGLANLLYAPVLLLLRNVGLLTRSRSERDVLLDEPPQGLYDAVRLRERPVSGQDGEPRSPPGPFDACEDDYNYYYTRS
Put plainly: Binding affinity to VAChT (unknown origin).

The Ki is a dissociation constant, usually derived from enzyme kinetics or from competition with a known ligand.

Consider `FCCOc1ccc(CN2CCN(Cc3ccc4c(c3)OCO4)CC2)cc1`, for which the inhibition constant Ki turned out to be 291 nM in data set [1] and 1.85 nM in data set [2]. The Ratio Ki in the data set filed under Rattus norvegicus was 157.
Take `[17F]CCC1OC2(CCN(Cc3ccccc3)CC2)c2ccccc21` (configuration not stated) [[18F]FLUSPIDINE]: the Drug uptake in the data set on Brain is on record as 62%. Moreover, the Ki in data set [3] amounted to 211 nM.
Turning to `FCCOCCOc1ccc(CN2CCN(Cc3ccc4c(c3)OCO4)CC2)cc1`, the Ki worked out at 666 nM in data set [1] and 40.7 nM in data set [2]. Also, in the data set filed under Rattus norvegicus, the Ratio Ki stood at 16.4.
The compound `O=C(CCCN1CCC(O)(c2ccc(Cl)cc2)CC1)c1ccc(F)cc1` [HALOPERIDOL] had a Ki in data set [1] of 20.7 nM.
Take `FCCOCCOCCOc1ccc(CN2CCN(Cc3ccc4c(c3)OCO4)CC2)cc1`: the Ki turned out to be 1420 nM in data set [1] and 505 nM in data set [2]. In the data set listed under Rattus norvegicus, the Ratio Ki came out at 2.81.
